Assays:
PvrA [1] = molecular target: T1, PvrA (Pseudomonas aeruginosa, UniProt Q9HZP1, R136A); assay: ITC; type: binding
T1 sequence (Q9HZP1 1-212 R136A): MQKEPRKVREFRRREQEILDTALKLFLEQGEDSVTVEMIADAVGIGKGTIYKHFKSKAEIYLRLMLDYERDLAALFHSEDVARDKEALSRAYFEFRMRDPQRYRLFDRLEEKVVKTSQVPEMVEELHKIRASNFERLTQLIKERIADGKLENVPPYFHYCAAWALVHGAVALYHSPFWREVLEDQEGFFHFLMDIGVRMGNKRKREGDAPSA

PvrA [2] = molecular target: T2, PvrA (Pseudomonas aeruginosa, UniProt Q9HZP1); assay: ITC at […]°C; type: binding
T2 sequence (Q9HZP1 1-212): T1 sequence (Q9HZP1 1-212 R136A)

Molecule `CCCCCCCCCCCCCCCC(=O)SCCNC(=O)CCNC(=O)[C@H](O)C(C)(C)COP(=O)(O)OP(=O)(O)OC[C@H]1O[C@@H](n2cnc3c(N)ncnc32)[C@H](O)[C@@H]1OP(=O)(O)O` [palmitoyl-coenzyme A] has a Kd (PvrA [1]) of 262 µM and a Kd (PvrA [2]) of 31 µM.
